According to US7759337B2, “Phthalazine compounds and methods of use” (Amgen Inc., priority 2005, dated 2010):

System: production of TNF by monocytes activated with bacterial lipopolysaccharide (LPS)
Experiment: Lipopolysaccharide-activated monocyte TNF production assay
Format: cell-based
Conditions: Homo sapiens; whole blood monocyte assay (LPS induced TNF release)
Outline: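 Adherent human PBMC-derived monocytes preincubated 60 min with nine two-fold compound dilutions, then stimulated with E. coli K532 LPS (30 ng/mL in the added medium) for 4 h at 37 °C. Supernatant TNF measured by sandwich ELISA; IC50 is the compound concentration halving TNF production, from second-order polynomial fits.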

Fc1ccc(Oc2ccc3c(-c4ccc(CN5CCOCC5)cc4)nncc3c2)cc1 [Example 333, 6-(4-fluorophenoxy)-1-[4-(morpholin-4-ylmethyl)phenyl]phthalazine]
IC50: ≤ 5 µM

COc1ccccc1-c1nncc2cc(Oc3ccc(C)cc3)ccc12 [Example 334, 1-(2-methoxyphenyl)-6-(4-methylphenoxy)phthalazine]
IC50: ≤ 5 µM

CS(=O)(=O)c1ccc(-c2nncc3cc(Oc4ccc(F)cc4)ccc23)cc1 [Example 335, 6-(4-fluorophenoxy)-1-[4-(methylsulfonyl)phenyl]phthalazine]
IC50: ≤ 5 µM

Fc1ccc(Oc2ccc3c(N4CCOCC4)nncc3c2)cc1 [Example 336, 6-(4-fluorophenoxy)-1-morpholin-4-ylphthalazine]
IC50: ≤ 5 µM

Fc1ccc(Oc2ccc3c(-c4ccsc4)nncc3c2)cc1 [Example 337, 6-(4-fluorophenoxy)-1-thien-3-ylphthalazine]
IC50: ≤ 5 µM

Cc1ccccc1-c1nncc2cc(Oc3cccc(Cl)c3)ccc12 [Example 338, 6-(3-chlorophenoxy)-1-(2-methylphenyl)phthalazine]
IC50: ≤ 5 µM

Fc1ccc(Oc2ccc3c(-c4ccccc4C(F)(F)F)nncc3c2)cc1 [Example 339, 6-(4-fluorophenoxy)-1-[2-(trifluoromethyl)phenyl]phthalazine]
IC50: ≤ 5 µM

Cc1ccccc1-c1nncc2cc(Oc3ccc(F)cc3)ccc12 [Example 340, 6-(4-fluorophenoxy)-1-(2-methylphenyl)phthalazine]
IC50: ≤ 5 µM

Cc1cc(F)ccc1-c1nncc2cc(Oc3ccc(F)cc3)ccc12 [Example 341, 1-(4-fluoro-2-methylphenyl)-6-(4-fluorophenoxy)phthalazine]
IC50: ≤ 5 µM

COC(=O)c1ccccc1Oc1ccc2c(-c3ccccc3C)nncc2c1 [Example 342, methyl 2-{[1-(2-methylphenyl)phthalazin-6-yl]oxy}benzoate]
IC50: ≤ 5 µM

Cc1ccccc1-c1nncc2cc(Oc3ccccc3C(=O)NC3CC3)ccc12 [Example 343, N-cyclopropyl-2-{[1-(2-methylphenyl)phthalazin-6-yl]oxy}benzamide]
IC50: ≤ 5 µM

Fc1ccc(Oc2ccc3c(-c4cn[nH]c4)nncc3c2)cc1 [Example 344, 6-(4-fluorophenoxy)-1-(1H-pyrazol-4-yl)phthalazine]
IC50: ≤ 5 µM

Cc1ccccc1-c1nncc2cc(Oc3ccc(F)cc3F)ccc12 [Example 345, 6-(2,4-difluorophenoxy)-1-(2-methylphenyl)phthalazine]
IC50: ≤ 5 µM

Cc1ccc(Oc2ccc3c(-c4ccccc4Cl)nncc3c2)cc1 [Example 346, 1-(2-chlorophenyl)-6-(4-methylphenoxy)phthalazine]
IC50: ≤ 5 µM

Cc1cc(F)ccc1-c1nncc2cc(Oc3ccccc3)ccc12 [Example 347, 1-(4-fluoro-2-methylphenyl)-6-phenoxyphthalazine]
IC50: ≤ 5 µM

O=C(O)Cc1ccc(-c2nncc3cc(Oc4ccc(F)cc4)ccc23)cc1 [Example 348, {4-[6-(4-fluorophenoxy)phthalazin-1-yl]phenyl}acetic acid]
IC50: ≤ 5 µM

COc1ncccc1-c1nncc2cc(Oc3ccc(F)cc3)ccc12 [Example 349, 6-(4-fluorophenoxy)-1-(2-methoxypyridin-3-yl)phthalazine]
IC50: ≤ 5 µM

Fc1ccc(Oc2ccc3c(N4C[C@@H]5C[C@H]4CO5)nncc3c2)cc1 [Example 350, (1S,4S)-5-[6-(4-fluorophenoxy)phthalazin-1-yl]-2-oxa-5-azabicyclo[2.2.1]heptane]
IC50: ≤ 5 µM

Fc1ccc(Oc2ccc3c(-c4cncnc4)nncc3c2)cc1 [Example 351, 6-(4-fluorophenoxy)-1-pyrimidin-5-ylphthalazine]
IC50: ≤ 5 µM

Cc1ccccc1-c1nncc2cc(Oc3cccc(C(=O)NC4CC4)c3)ccc12 [Example 352, N-cyclopropyl-3-{[1-(2-methylphenyl)phthalazin-6-yl]oxy}benzamide]
IC50: ≤ 5 µM

CS(=O)(=O)N1CCN(c2nncc3cc(Oc4ccc(F)cc4)ccc23)CC1 [Example 353, 6-(4-fluorophenoxy)-1-[4-(methylsulfonyl)piperazin-1-yl]phthalazine]
IC50: ≤ 5 µM

Cc1ccccc1-c1nncc2cc(Oc3cccc(C(=O)O)c3)ccc12 [Example 354, 3-{[1-(2-methylphenyl)phthalazin-6-yl]oxy}benzoic acid]
IC50: ≤ 5 µM

Cc1ccccc1-c1nncc2cc(Oc3cccc(F)c3)ccc12 [Example 355, 6-(3-fluorophenoxy)-1-(2-methylphenyl)phthalazine]
IC50: ≤ 5 µM

Fc1ccc(Oc2ccc3c(N4CCOCC4)nncc3c2)c(F)c1 [Example 356, 6-(2,4-difluorophenoxy)-1-morpholin-4-ylphthalazine]
IC50: ≤ 5 µM

Cc1ccc(S(N)(=O)=O)cc1-c1ccc2c(NC(C)C)nncc2c1 [Example 357, 3-[1-(isopropylamino)phthalazin-6-yl]-4-methylbenzenesulfonamide]
IC50: ≤ 5 µM

CNS(=O)(=O)c1ccc(C)c(-c2ccc3c(NC(C)C)nncc3c2)c1 [Example 358, 3-[1-(isopropylamino)phthalazin-6-yl]-N,4-dimethylbenzenesulfonamide]
IC50: ≤ 5 µM

Cc1ccc(S(=O)(=O)NC2CC2)cc1-c1ccc2c(NC(C)C)nncc2c1 [Example 359, N-cyclopropyl-3-[1-(isopropylamino)phthalazin-6-yl]-4-methylbenzenesulfonamide]
IC50: ≤ 5 µM

Cc1ccc(S(=O)(=O)NC2CC2)cc1-c1ccc2c(N3CCOCC3)nncc2c1 [Example 360, N-cyclopropyl-4-methyl-3-(1-morpholin-4-ylphthalazin-6-yl)benzenesulfonamide]
IC50: ≤ 5 µM

CCNC(=O)c1ccc(C)c(-c2ccc3c(CC(C)C)nncc3c2)c1 [Example 361, N-ethyl-3-(1-isobutylphthalazin-6-yl)-4-methylbenzamide]
IC50: ≤ 5 µM

CCOC(=O)c1ccc(C)c(-c2ccc3c(C(C)C)nncc3c2)c1 [Example 362, ethyl 3-(1-isopropylphthalazin-6-yl)-4-methylbenzoate]
IC50: ≤ 5 µM

CCNC(=O)c1ccc(C)c(-c2ccc3c(C(C)C)nncc3c2)c1 [Example 363, N-ethyl-3-(1-isopropylphthalazin-6-yl)-4-methylbenzamide]
IC50: ≤ 5 µM

Cc1cc(S(N)(=O)=O)ccc1-c1nncc2cc(Oc3ccc(F)cc3)ccc12 [Example 364, 4-[6-(4-fluorophenoxy)phthalazin-1-yl]-3-methylbenzenesulfonamide]
IC50: ≤ 5 µM

CC[C@H](C)Nc1nncc2cc(-c3c(C)ccc4c(NC)noc34)ccc12 [Example 365, 6-[6-methyl-3-(methylamino)-1,2-benzisoxazol-7-yl]-N-[(1S)-1-methylpropyl]phthalazin-1-amine]
IC50: ≤ 5 µM

CC[C@@H](C)Nc1nncc2cc(-c3c(C)ccc4c(NC)noc34)ccc12 [Example 366, 6-[6-methyl-3-(methylamino)-1,2-benzisoxazol-7-yl]-N-[(1R)-1-methylpropyl]phthalazin-1-amine]
IC50: ≤ 5 µM

Cc1ccc2c(N)nsc2c1-c1ccc2c(N3CCOC[C@@H]3C)nncc2c1 [Example 367, 6-methyl-7-{1-[(3S)-3-methylmorpholin-4-yl]phthalazin-6-yl}-1,2-benzisothiazol-3-amine]
IC50: ≤ 5 µM
